The numbers were not newly measured in patent US20020122815A1, “Compositions and methods of carbohydrate dosing” (priority 2001, published 2002), which cites them from elsewhere.

The conditions of data set [1]: in large amounts.
Data set [2] concerns serum glucose levels. The settings on record: compared with glucose or sucrose.
Data set [3] concerns serum glucose levels. The settings on record: serum glucose response to 50 g carbohydrate as percentage of standard meal (usually 50 g glucose).

For the compound `OC[C@@H](O)[C@@H](O)[C@H](O)[C@H](O)CO` [Mannitol], the adverse effect entry in data set [1] is listed as “may cause diarrhea”. Further, the “rise in serum glucose” value in the data set on serum glucose levels [2] is listed as “less of a rise in serum glucose than glucose or sucrose”.

With `O=C(CO)[C@@H](O)[C@H](O)[C@H](O)CO` [fructose], the “Glycemic Index” value in the data set with serum glucose levels [3] is listed as 23.

Turning to `OC[C@@H](O)[C@@H](O)[C@H](O)[C@@H](O)CO` [sorbitol], in data set [1], the adverse effect result was “may cause diarrhea”. The “rise in serum glucose” value with serum glucose levels [2] is given as “less of a rise in serum glucose than glucose or sucrose”.

`OC[C@H]1O[C@@](CO)(O[C@H]2O[C@H](CO)[C@@H](O)[C@H](O)[C@H]2O)[C@@H](O)[C@@H]1O` [sucrose]: the “Glycemic Index” value in the data set with serum glucose levels [3] is on record as 60-65.
